Data taken from article PMC11129182, “Development of Inhibitors, Probes, and PROTAC Provides a Complete Toolbox to Study PARK7 in the Living Cell” (Journal of Medicinal Chemistry, 2024).
Like-named read-outs stand apart in the source and are kept apart here. Residues, ends and D or L forms follow the SMILES beside them. *: point of attachment. Cbz = O=C(OCc1ccccc1)*

Key:
PARK7 [1] = biological target: T1, PARK7 (Homo sapiens, UniProt Q99497); assay: Activity evaluation of PROTACs in cells (PARK7 degradation, immunoblot); conditions: A549 cells; for effect of pretreatment on JYQ-194-induced PARK7 degradation: pretreatment 4 h (5 μM pomalidomide, 5 μM JYQ-173 or 10 μM MG-132), then JYQ-194 5 μM 8 h
T1 sequence (Q99497 1-189): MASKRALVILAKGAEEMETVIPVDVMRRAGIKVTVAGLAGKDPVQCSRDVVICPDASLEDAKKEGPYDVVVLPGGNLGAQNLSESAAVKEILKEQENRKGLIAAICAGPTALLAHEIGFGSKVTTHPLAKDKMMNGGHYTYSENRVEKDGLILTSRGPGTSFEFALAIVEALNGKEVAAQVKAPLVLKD
Experimental: A549 cells were seeded into 6-well plates. The next day after seeding, cells were incubated with the indicated concentrations of indicated PROTACs for 8 h. The cells were then washed with PBS and collected. The collected cell pellets were lysed with Tris-triton buffer as described above. The prepared cell lysate of each sample (10 μL) was added 5 μL 3× LDS + 5% β-mercaptoethanol, and boiled for 10 min.

PARK7 [2] = biological target: T1, PARK7; assay: High-throughput screen of the crude compound library, PARK7 fluorescence polarization (FP) assay with FP reagent JYQ-107; assay type: biochemical; conditions: 1.25 µM, crude compound library, read-out: HTS FP assay %Inhibition (1.25 µM)
PARK7 [3] = biological target: T1, PARK7; assay: Hit validation and pure-compound testing in the PARK7 FP assay with JYQ-107; assay type: biochemical; conditions: crude compounds; for inhibition at 0.25 µM: read-out: % Inhibition 0.25 µM; for inhibition at 0.5 µM: read-out: % Inhibition 0.5 µM

| SMILES | PARK7 degradation (PARK7 [1]; 8 h) | inhibition at 1.25 µM (PARK7 [2]; FP reagent JYQ-107) [%] | inhibition at 0.25 µM (PARK7 [3]) [%] | inhibition at 0.5 µM (PARK7 [3]) [%] | inhibition at 1 µM (PARK7 [3]) [%] | inhibition at 1.25 µM (PARK7 [2]) [%] | concentration at which PARK7 degradation starts (PARK7 [1]; 0.1 to 5 μM, 8 h) [µM] | effect of pretreatment on JYQ-194-induced PARK7 degradation (PARK7 [1]) |
| --- | --- | --- | --- | --- | --- | --- | --- | --- |
| N#CN1CC[C@@H](C(=O)Nc2nc3c(s2)CN(C(=O)c2cccc(S(=O)(=O)N4CCN(C(=O)Cn5cc(COCCOCCOCCNc6cccc7c6C(=O)N(C6CCC(=O)NC6=O)C7=O)nn5)CC4)c2)CC3)C1 (stereo partly drawn) [JYQ-188] | No degradation of PARK7 was observed | – | – | – | – | – | – | – |
| CC(C)C[C@@H](C=O)NC(=O)[C@H](CC(C)C)NC(=O)[C@H](CC(C)C)NC(=O)OCc1ccccc1 [MG-132, reference compound] (Cbz-Leu-Leu-Leu-aldehyde) | – | – | – | – | – | – | – | abolished |
| N#CN1CC[C@@H](C(=O)Nc2nc3c(s2)CN(C(=O)c2cccnc2Oc2ccc(Cl)cc2Cl)CC3)C1 [Compound 345] | – | 92.1 | 63.1 | 85 | 95 | – | – | – |
| Nc1cccc2c1C(=O)N(C1CCC(=O)NC1=O)C2=O (stereo not drawn) [pomalidomide, reference compound] | – | – | – | – | – | – | – | abolished |
| N#CN1CC[C@@H](C(=O)Nc2nc3c(s2)CN(C(=O)c2cccc(Oc4ccc(Cl)cc4)n2)CC3)C1 [Compound 312] | – | – | 34.1 | 62.9 | 89.5 | 92.1 | – | – |
| N#CN1CC[C@@H](C(=O)Nc2nc3c(s2)CN(C(=O)c2cc(-c4ccc(Cl)s4)[nH]n2)CC3)C1 [Compound 64] | – | – | 33.1 | 63.2 | 89.5 | 90 | – | – |
| CC(C)c1nc(Cn2cc(C(=O)N3CCc4nc(NC(=O)[C@@H]5CCN(C#N)C5)sc4C3)ccc2=O)cs1 [Compound 149] | – | – | 42.9 | 69.6 | 89.6 | 93.2 | – | – |
| N#CN1CC[C@@H](C(=O)Nc2nc3c(s2)CN(C(=O)c2cccnc2Oc2ccccc2Br)CC3)C1 [Compound 313] | – | – | 63 | 81.5 | 94.7 | 94.5 | – | – |
| N#CN1CC[C@@H](C(=O)Nc2nc3c(s2)CN(C(=O)c2cccc(COc4cccc(F)c4)c2)CC3)C1 [Compound 110] | – | – | 56.4 | 78.2 | 93.5 | 94 | – | – |
| N#CN1CC[C@@H](C(=O)Nc2nc3c(s2)CN(C(=O)c2ccc(-c4ccccn4)s2)CC3)C1 [Compound 258] | – | – | 44.4 | 72.9 | 91 | 89.2 | – | – |
| N#CN1CC[C@@H](C(=O)Nc2nc3c(s2)CN(C(=O)c2ccc(-c4ccccn4)nc2)CC3)C1 [Compound 274] | – | – | 44.5 | 71.4 | 91.8 | 92.9 | – | – |
| Cc1ccc(-c2cc(C(=O)N3CCc4nc(NC(=O)[C@@H]5CCN(C#N)C5)sc4C3)n[nH]2)s1 [Compound 165] | – | – | 56.4 | 82.2 | 95.6 | 95.1 | – | – |
| N#CN1CC[C@@H](C(=O)Nc2nc3c(s2)CN(C(=O)c2ccc(Cl)c(N4CCCS4(=O)=O)c2)CC3)C1 [Compound 197] | – | – | 65.4 | 85.8 | 95 | 95.6 | – | – |
| N#CN1CC[C@@H](C(=O)Nc2nc3c(s2)CN(C(=O)c2cccc(-c4ncon4)c2)CC3)C1 [Compound 381] | – | 93.4 | 64.1 | 84.8 | 97.7 | – | – | – |
| COc1ccc(C(=O)N2CCc3nc(NC(=O)[C@@H]4CCN(C#N)C4)sc3C2)cc1S(=O)(=O)NCCCN1CCOCC1 [Compound 242] | – | – | 46.8 | 71.2 | 91.4 | 89.2 | – | – |
| N#CN1CC[C@@H](C(=O)Nc2nc3c(s2)CN(C(=O)c2cccc(-c4ncn[nH]4)c2)CC3)C1 [Compound 131] | – | – | 66.1 | 84.3 | 96.9 | 91 | – | – |
| N#CN1CC[C@@H](C(=O)Nc2nc3c(s2)CN(C(=O)c2cccc(S(=O)(=O)NCc4cccs4)c2)CC3)C1 [Compound 11] | – | – | 49.3 | 77.9 | 93.6 | 90 | – | – |
| CC1CCCCN1S(=O)(=O)c1ccccc1C(=O)N1CCc2nc(NC(=O)[C@@H]3CCN(C#N)C3)sc2C1 (stereo partly drawn) [Compound 386] | – | 94.5 | 57.7 | 79.9 | 95.9 | – | – | – |
| N#CN1CC[C@@H](C(=O)Nc2nc3c(s2)CN(C(=O)c2ccc(Oc4cccc(Cl)c4)cn2)CC3)C1 [Compound 268] | – | – | 33.9 | 63.1 | 82.8 | 89.7 | – | – |
| COc1ccccc1-c1cc(C(=O)N2CCc3nc(NC(=O)[C@@H]4CCN(C#N)C4)sc3C2)n[nH]1 [Compound 293] | – | – | 48.1 | 76 | 93 | 97.5 | – | – |
| N#CN1CC[C@@H](C(=O)Nc2nc3c(s2)CN(C(=O)c2cccc(S(=O)(=O)N4CCN(C(=O)Cn5cc(COCCOCCNc6cccc7c6C(=O)N(C6CCC(=O)NC6=O)C7=O)nn5)CC4)c2)CC3)C1 (stereo partly drawn) [JYQ-187] | No degradation of PARK7 was observed | – | – | – | – | – | – | – |
| N#CN1CC[C@@H](C(=O)Nc2nc3c(s2)CN(C(=O)c2cc(-n4cc(COCCOCCOCCNc5cccc6c5C(=O)N(C5CCC(=O)NC5=O)C6=O)nn4)ccc2F)CC3)C1 (stereo partly drawn) [JYQ-195] | – | – | – | – | – | – | 2 | – |

Now from value to compound, other results behind:

| PARK7 degradation (PARK7 [1]; 8 h) | inhibition at 1.25 µM (PARK7 [2]; FP reagent JYQ-107) [%] | inhibition at 0.25 µM (PARK7 [3]) [%] | inhibition at 0.5 µM (PARK7 [3]) [%] | inhibition at 1 µM (PARK7 [3]) [%] | inhibition at 1.25 µM (PARK7 [2]) [%] | concentration at which PARK7 degradation starts (PARK7 [1]; 0.1 to 5 μM, 8 h) [µM] | SMILES | effect of pretreatment on JYQ-194-induced PARK7 degradation (PARK7 [1]) |
| --- | --- | --- | --- | --- | --- | --- | --- | --- |
| – | – | 55.5 | 85.4 | 94.3 | 78.9 | – | N#CN1CC[C@@H](C(=O)Nc2nc3c(s2)CN(C(=O)Cc2cnn(-c4ccccc4)n2)CC3)C1 [Compound 217] | – |
| – | – | 52 | 77.6 | 93.8 | 90.5 | – | Cc1ccc(-c2cc(C(=O)N3CCc4nc(NC(=O)[C@@H]5CCN(C#N)C5)sc4C3)[nH]n2)o1 [Compound 121] | – |
| – | – | 47.6 | 73.1 | 92.7 | 92.3 | – | CCC1(Cn2cc(C(=O)N3CCc4nc(NC(=O)[C@@H]5CCN(C#N)C5)sc4C3)nn2)COC1 [Compound 83] | – |
| – | – | 38.6 | 65.4 | 88 | 89.6 | – | N#CN1CC[C@@H](C(=O)Nc2nc3c(s2)CN(C(=O)c2cnn(-c4ccccc4)n2)CC3)C1 [Compound 295] | – |
| – | – | 57.5 | 79.2 | 94.5 | 93.5 | – | N#CN1CC[C@@H](C(=O)Nc2nc3c(s2)CN(C(=O)CCn2nc(C(F)(F)F)cc2C2CC2)CC3)C1 [Compound 333] | – |
| – | – | 45.4 | 67.6 | 89.3 | 92.4 | – | N#CN1CC[C@@H](C(=O)Nc2nc3c(s2)CN(C(=O)c2csc(C4CC4)n2)CC3)C1 [Compound 152] | – |
| – | – | 45 | 70.4 | 90.7 | 89.7 | – | N#CN1CC[C@@H](C(=O)Nc2nc3c(s2)CN(C(=O)c2cc(S(=O)(=O)NCCCN4CCCC4=O)ccc2Cl)CC3)C1 [Compound 146] | – |
| – | – | 50.5 | 73.9 | 93.7 | 93.7 | – | CN(CC1CC1)c1ccc(C(F)(F)F)cc1C(=O)N1CCc2nc(NC(=O)[C@@H]3CCN(C#N)C3)sc2C1 [Compound 304] | – |
| – | – | 53.3 | 79 | 94.5 | 94.2 | – | Cc1ccc([C@@H]2C[C@H]2C(=O)N2CCc3nc(NC(=O)[C@@H]4CCN(C#N)C4)sc3C2)s1 [Compound 188] | – |
| – | 89.2 | 60.5 | 81 | 94.1 | – | – | N#CN1CC[C@@H](C(=O)Nc2nc3c(s2)CN(C(=O)c2ccc(=O)n(C4CC4)c2)CC3)C1 [Compound 369] | – |
| – | – | 58.2 | 80.9 | 94.3 | 91.5 | – | N#CN1CC[C@@H](C(=O)Nc2nc3c(s2)CN(C(=O)c2cc(-c4ccco4)on2)CC3)C1 [Compound 139] | – |
